Values joined by “and” are separate entries in the source; they are usually repeats but may differ in a detail not shown here. Equal values may be shown once.
Test system: Bacillus anthracis
Assay type: cell-based

Compound	MIC50	MIC90	MIC
colistin [reference compound]	GT64 μg ml	GT64 μg ml	–
Cc1cc(Cl)ccc1-c1sc(C(O)(C(F)(F)F)C(F)(F)F)cc1-c1ccc(Cl)cc1CO [DNM95A, 2-(4-(4-chloro-2-(hydroxymethyl)phenyl)-5-(4-chloro-2-methylphenyl)thiophen-2-yl)-1,1,1,3,3,3-hexafluoropropan-2-ol]	1 µg·mL	1 µg·mL	1 µg·mL and 0.5 µg·mL
Cc1cc(Cl)ccc1-c1cc(C(O)(C(F)(F)F)C(F)(F)F)sc1-c1ccc(Cl)cc1CO [DNM94A, 2-(5-(4-chloro-2-(hydroxymethyl)phenyl)-4-(4-chloro-2-methylphenyl)thiophen-2-yl)-1,1,1,3,3,3-hexafluoropropan-2-ol]	1 µg·mL	1 µg·mL	1 µg·mL

Reference: patent US20250161266A1, “Antibacterial 4.5 Diaryl-Thiophen-2-YL Hexafluoropropan-2-OLS” (priority 2022, published 2025)
